Data set [1] in a line: Plasma kinetics after single oral dose of 300 mg Pycnogenol in healthy volunteers. The format is in vivo, human. The conditions noted are these: for half-life: read-out: term t½ (terminal half-life) (converted); for tmax: read-out: tmax (time of maximal plasma concentration). On the procedure: Eleven volunteers (five female and six male) participated in this study. After a 24 hour diet free of flavonoids (no vegetables, fruits and fruit juices or marmalades, tea, coffee, cocoa, wine and beer) a venous blood catheter was inserted into an antecubital vein and blood samples were drawn to obtain basal values (t = 0 h at 8:00 a.m.). […] After each blood sampling mineral water was served. Blood samples were obtained at t = 0.5 h, 1 h, 2 h, 4 h, 6 h, 8 h, 10 h, 12 h and 14 h. Samples were centrifuged and plasma was aliquoted, shock frozen and stored at -80°C until further analysis.
(§1) Plasma samples of 2.0 mL were prepared for analysis. For determination of total plasma concentration, to each sample 20 U β-glucuronidase (type H-3 from Helix pomatia; EC 3.2.1.31) and 20 U sulfatase (type H-1 from Helix pomatia; EC 3.1.6.1) were added in 50 mM sodium acetate buffer (pH 5.0) and incubated for 2 h at 37°C under gentle shaking. Samples for determination of free plasma concentrations were prepared without prior incubation with enzymes. Each 20 μL of p-hydroxybenzoic acid methylester (100 μg/mL; for HPLC UV detection) and hydrochinone (10 μg/mL; for HPLC electrochemical detection) were added as internal standards and samples were acidified with 100 μL 1 M-HCl. Samples were extracted twice with each 3 mL acetic acid methylester for 20 min, using a roller mixer, followed by centrifugation (20°C) 5 min. The organic phases of both extractions were separated, combined and evaporated to dryness under a gentle stream of nitrogen at 25°C. The resulting residue was reconstituted in 100 μL methanol and subjected to HPLC analysis.
(§2) The HPLC system was a Waters HPLC (Milford, MA, USA) consisted of a 1525 binary pump, a 717plus autosampler, a 2487 dual wavelength absorbance detector set at the detection wavelength of 280 nm and an electrochemical detector CLC 100 (Chromsystems, Munich, Germany) set at an oxidation voltage of 0.5 V. The second detector was connected to the control system by a satellite interface (Waters). Data collection and integration were accomplished using Breeze™ software version 3.30. Analysis was performed on a Zorbax SB C8 column (150 × 4.6 mm I.D., 5 μm particle size, Agilent Technologies, Palo Alto, CA, USA).
(§3) Typically, 20 μL of sample were injected and separated at a flow rate of 1 mL/min. Isocratic elution was performed using water (containing 0.6 mM 1-octanesulfonic acid sodium salt, 0.27 mM ethylenediaminetetraacetic acid disodium salt, 0.04 M triethylamine; pH 2.95 adjusted with phosphoric acid) and acetonitrile (ACN, HPLC gradient quality, Fisher Scientific, Schwerte, Germany). Method A (for UV detection of ferulic acid, M2 (δ-(3-Methoxy-4-hydroxy-phenyl)-γ-valerolactone), U1, U2, U3, U4, U7, U8, and U9) used water/ACN at 85:15 (v/v).

A further data set in a line: clinical. The data set is classed as in vivo. Particulars: for % conjugated (mean degree of conjugation with sulfate and glucuronic acid): steady state plasma, mean of volunteers; for concentration at 4 h: both sexes, 200 mg. On the procedure:
Five volunteers (four female and one person) participated in this study. After a 24 hour diet free of flavonoids blood samples were drawn to obtain basal values. […] It was assumed that steady state plasma concentrations were reached after 5 days.
Four hours after the last intake of Pycnogenol on day five a second blood sample was obtained from each volunteer. Again, a 24 hour period of a diet free of flavonoids preceded this blood sampling. Blood samples were centrifuged and plasma was aliquoted, shock frozen and stored at -80°C until further analysis.
as §1, §2, §3

The conditions of data set [2]: cited from earlier work; for t½: reported previously.
The test system of a further data set is MMP-9 release. Particulars: in vitro / cell culture assays; read-out: IC50, inhibition of MMP-9 release; cited from earlier work.
The mark [3] stands for this setting: 200 mg Pycnogenol once daily for five days.
The mark [4] stands for this setting: both sexes, human, plasma, oral, 300 mg, single dose 300 mg Pycnogenol, total plasma, read-out: cmax converted to molar concentration.
[5] abbreviates: both sexes, human, plasma, po, 300 mg, human volunteers, single oral dose 300 mg Pycnogenol, total (free and conjugated) plasma, t = 14 h, mean ± SD, read-out: AUC [0-t].
Where [6] appears, read: both sexes, human, plasma, po, 300 mg, human volunteers, single oral dose 300 mg Pycnogenol, total plasma, mean ± SD, read-out: AUC [t-8].
Where [7] appears, read: both sexes, human, plasma, po, 300 mg, human volunteers, single oral dose 300 mg Pycnogenol, total plasma, mean ± SD, read-out: cmax (maximal plasma concentration).
Where [8] appears, read: both sexes, human, plasma, po, 300 mg.
Where [9] appears, read: human volunteers, single oral dose 300 mg Pycnogenol, total plasma, mean ± SD.
[10] abbreviates: human, plasma, oral, 200 mg Pycnogenol once daily for five days, 4 h after last dose, with sulfatase and glucuronidase, mean ± mean deviation, read-out: Total plasma concentration.
Where [11] appears, read: human, plasma, oral, 200 mg Pycnogenol once daily for five days, 4 h after last dose, without enzyme incubation, read-out: Free plasma concentration.
The mark [12] stands for this setting: both sexes, human, plasma, oral, 300 mg.
Setting [13] is: both sexes, human, plasma, po, 300 mg, human volunteers, single oral dose 300 mg Pycnogenol, total plasma, mean ± SD.

Here are results for 8 compounds from PMC1559639 (BMC Clinical Pharmacology, 2006).

“And” between values parts separate entries of the source, which are not always exact repeats. Equal values may be shown once. Read-outs that look alike come from different tables or passages of the source.

As to `Oc1cc(O)cc(O)c1` [phloroglucin], the “detection of taxifolin degradation products in volunteers' plasma” value in data set [1] (human, in vivo) is on record as “failed to detect”.

For `COc1cc(/C=C/C(=O)O)ccc1O` [Ferulic acid, ferulic acid], in the data set “clinical” (setting [3]), the “% conjugated (mean degree of conjugation with sulfate and glucuronic acid)” value (“% conjugated” for short) is reported as “≈ 100%”. Further, the concentration at 4 h in “clinical” (human, in vivo, read-out: Total plasma concentration) is about 20 ng/mL. The Cmax in data set [1] (setting [4]) was about 75 nM; in data set [1] (setting [7]), about 15 ng/mL. In addition, the values for the AUC(0-t) in data set [1] (setting [5]) and in data set [1] (setting [6]) were 99 ± 28.1 ng·h/mL and 141 ± 73.9 ng·h/mL, respectively. Moreover, in data set [1] (setting [8]), the half-life is 6.87 ± 3.83 h. The “cmax (maximal plasma concentration)” value in data set [1] (setting [9]) is on record as 14.78 ± 5.89 ng/mL. The “tmax (time of maximal plasma concentration)” value in data set [1] (setting [9]) was 1.2 ± 1.1 h; in data set [1] (human volunteers, single oral dose 300 mg Pycnogenol, total plasma, mean ± SD, listed as ferulic acid) it was 0.5 to 1 h and 1 h. In data set [2] (after ingestion of 250 mg ferulic acid from breakfast cereals), the plasma concentrations is 150 to 210 nM. Moreover, the “free ferulic acid (share)” value in data set [2] (after single ingestion of beer) is reported as “around 25%”. Further, the tmax in data set [2] (other report, ref 6) was 0.77 h; in data set [2] (other report, ref 27), 1 to 3 h. In addition, the t½ in data set [2] was 6.35 ± 2.95 h.

On to `Oc1cc(O)c2c(c1)O[C@H](c1ccc(O)c(O)c1)[C@@H](O)C2` [Catechin, (+)-catechin], for which the concentration at 4 h is 48.6 ± 16.7 ng/mL in the data set “clinical” (setting [10]), 21 ± 13.1 ng/mL in “clinical” (setting [11]) and about 100 ng/mL in data set [1] (setting [12]). Moreover, the “free catechin concentration (share of total)” value in the data set “clinical” (both, human, in vivo, 4 h) is on record as “about 56%”. In data set [1] (setting [12]), this compound displayed a concentration at 0.5 h of about 60 ng/mL. The figures for the Cmax in data set [1] (setting [4]) and in data set [1] (setting [7]) were about 370 nM and about 100 ng/mL, respectively. The tmax in data set [1] (setting [13]) is at most 3 h; in data set [2] (human plasma, after ingestion of red wine or reconstituted red wine), 1.5 h. Also, the “cmax (maximal plasma concentration)” value in data set [1] (setting [9]) worked out at 107.22 ± 55.49 ng/mL. In data set [1] (setting [9]), the “tmax (time of maximal plasma concentration)” value is recorded as 3.2 ± 1.7 h. In addition, in data set [2] (after a high single dose), the “time window of detection of unchanged compound in plasma” value is “between 30 min and 12 h”. The “free polyphenol concentration as share of total concentration” value in data set [2] (after a single dose of pure catechin) was 1.1 to 6.5%. In addition, the “time by which plasma concentrations were not significantly different from baseline” value in data set [2] (after ingestion of pure catechin) was at most 4 h.

As to `O=C1CCC(Cc2ccc(O)c(O)c2)O1` (centres unmarked) [M1, δ-(3,4-Dihydroxy-phenyl)-γ-valerolactone], in the data set “clinical” (setting [3]), the “% conjugated” value is listed as “≈ 100%”. Moreover, in “clinical” (setting [10]), the concentration at 4 h turned out to be 3.01 ng/mL. Further, in data set [1] (after single dose 300 mg Pycnogenol, first sampling at 0.5 h), the “time of first detection in plasma” value stood at 6 h. Also, in data set [1] (around 10 h after single dose 300 mg Pycnogenol, total plasma), the “mean concentration at peak” value is on record as 3.59 ng/mL. Further, the Cmax was about 20 nM in data set [1] (setting [4]) and about 4 ng/mL in data set [1] (setting [7]). Besides, the tmax in data set [1] (setting [13]) is about 10 h. Moreover, the “presence in plasma over the experimental period of 14 h” value in data set [1] (single dose 300 mg Pycnogenol) is “still present 14 h after Pycnogenol ingestion”. The earliest appearance in data set [2] (after green tea ingestion) is recorded as 3 h. Further, in data set [2] (after ingestion of green tea), the “time of peak plasma levels” value was 5 to 12 h. For the same compound, in the data set on MMP-9 release, the half-maximal inhibitory concentration (IC50) was 500 nM.

Turning to `O=C(O)Cc1ccc(O)c(O)c1` [3,4-dihydroxyphenylacetic acid], in data set [1] (after Pycnogenol intake), the “detection of taxifolin degradation products in volunteers' plasma” value is “failed to detect”.

In the case of `O=C(O)/C=C/c1ccc(O)c(O)c1` [Caffeic acid, caffeic acid], the “% conjugated” value in “clinical” (setting [3]) is 69.4 ± 11.8%; in the data set “clinical” (200 mg Pycnogenol once daily for five days, listed as caffeic acid), 69.4% and 69%. Besides, the concentration at 4 h in “clinical” (setting [10]) was found to be 2.42 ± 1.39 ng/mL; in “clinical” (setting [11]), 0.56 ± 0.02 ng/mL. Besides, the “individual degree of conjugation” value in “clinical” (single volunteers, 200 mg Pycnogenol daily for five days) is 59.6% and 61.5% and 87.6%. Besides, the Cmax was about 90 nM in data set [1] (setting [4]); about 17 ng/mL in data set [1] (setting [7]); 6.5 ng/mL in data set [2] (after ingestion of 107 mg caffeic acid from artichoke leaf extract); 84 nM in data set [2] (after intake of 55 μg caffeic acid per kg body weight, read-out: cmax). Also, the AUC(0-t) is 75.7 ± 33.5 ng·h/mL in data set [1] (setting [5]) and 82.8 ± 36.5 ng·h/mL in data set [1] (setting [6]). The tmax in data set [1] (setting [13]) is 3 to 4 h; in data set [2] (after ingestion of red wine), 2 h; in data set [2] (after intake of red wine, coffee or artichoke leaf extract), 0.5 to 1 h. Further, the half-life in data set [1] (setting [8]) was 4.42 ± 2.47 h. The “cmax (maximal plasma concentration)” value in data set [1] (setting [9]) is reported as 16.67 ± 13.29 ng/mL. The “tmax (time of maximal plasma concentration)” value in data set [1] (setting [9]) amounted to 3.7 ± 2.4 h. Besides, the t½ in data set [2] is given as 3.08 ± 1.53 h.

In the case of `O=C1c2c(O)cc(O)cc2O[C@H](c2ccc(O)c(O)c2)[C@H]1O` (racemic) [Taxifolin, (±)-taxifolin], the AUC(0-t) in data set [1] (setting [5]) is 231 ± 86 ng·h/mL; in data set [1] (setting [6]), 399 ± 99 ng·h/mL. Also, in data set [1] (setting [7]), the Cmax was determined as 33.3 ± 12.5 ng/mL. In data set [1] (setting [13]), the tmax was determined as 8 h. Besides, the half-life in data set [1] (setting [8]) is 8.89 ± 2.81 h. Moreover, the “tmax (time of maximal plasma concentration)” value in data set [1] (setting [9]) was 8.2 ± 2.5 h.

As to `COc1cc(CC2CCC(=O)O2)ccc1O` (centres unmarked) [M2, δ-(3-Methoxy-4-hydroxy-phenyl)-γ-valerolactone], the “plasma concentration (not detected; lower limit of quantitation)” value in data set [1] (after single dose and repeated ingestion of Pycnogenol) was under 50 ng/mL. In the data set with MMP-9 release, the concentration for half-maximal inhibition (IC50) is 500 nM.

What is called half-life is the time needed for the level to fall by half in the phase considered. The term t½ denotes how long it takes for the measured level to halve. What is called IC50 is the midpoint of a concentration-inhibition curve.
